Laboratory results published in ChEMBL document CHEMBL1743341, “Cytochrome p450 enzymes mechanism based inhibitors: common sub-structures and reactivity” (Curr Drug Metab, 2005).

Columns and labels:
Assay type in all cases: ADME
CYP3A4 [1] = biological target: T1, CYP3A4 (Homo sapiens, UniProt P08684); assay: (§1) Mechanism based inhibition of human cytochrome P450 3A4 measured by (14C)formaldehyde production from (N-methyl-14C)-erythromycin; conditions: human, probe (N-methyl-14C)-erythromycin
Cytochrome P450 3A4 [2] = biological target: T2, Cytochrome P450 3A4 (Homo sapiens, UniProt P08684); assay: as §1
Cytochrome P450 2E1 [3] = biological target: Cytochrome P450 2E1 (Homo sapiens, UniProt P05181); assay: Mechanism based inhibition of human cytochrome P450 2E1
CYP3A4 [4] = biological target: T1, CYP3A4; assay: (§2) Mechanism based inhibition of human cytochrome P450 3A4 measured by testosterone 6-beta hydroxylation; conditions: probe testosterone (6-beta hydroxylation)
Cytochrome P450 1A2 = biological target: T3, Cytochrome P450 1A2 (Homo sapiens, UniProt P05177); assay: Mechanism based inhibition of human cytochrome P450 1A2 measured by 7-ethoxyresorufin O-deethylation (EROD)
T3 sequence (P05177 whole entry): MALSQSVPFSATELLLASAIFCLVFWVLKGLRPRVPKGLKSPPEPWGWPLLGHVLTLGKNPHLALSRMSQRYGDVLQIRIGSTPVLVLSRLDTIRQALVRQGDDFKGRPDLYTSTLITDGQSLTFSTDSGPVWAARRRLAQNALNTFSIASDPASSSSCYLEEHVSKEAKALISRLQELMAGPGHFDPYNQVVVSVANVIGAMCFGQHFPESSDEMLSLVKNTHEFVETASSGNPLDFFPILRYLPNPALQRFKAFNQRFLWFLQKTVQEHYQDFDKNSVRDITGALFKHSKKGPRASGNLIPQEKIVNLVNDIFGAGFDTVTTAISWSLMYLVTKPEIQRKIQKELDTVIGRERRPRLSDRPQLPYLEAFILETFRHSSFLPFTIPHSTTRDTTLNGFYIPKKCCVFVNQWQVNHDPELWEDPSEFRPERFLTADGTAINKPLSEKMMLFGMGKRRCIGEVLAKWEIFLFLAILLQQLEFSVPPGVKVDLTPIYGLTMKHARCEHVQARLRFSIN

CYP2A6 = biological target: T4, CYP2A6 (Homo sapiens, UniProt P11509); assay: (§3) Mechanism based inhibition of human cytochrome P450 2A6 measured by coumarin 7-hydroxylation; conditions: probe coumarin
T4 sequence (P11509 whole entry): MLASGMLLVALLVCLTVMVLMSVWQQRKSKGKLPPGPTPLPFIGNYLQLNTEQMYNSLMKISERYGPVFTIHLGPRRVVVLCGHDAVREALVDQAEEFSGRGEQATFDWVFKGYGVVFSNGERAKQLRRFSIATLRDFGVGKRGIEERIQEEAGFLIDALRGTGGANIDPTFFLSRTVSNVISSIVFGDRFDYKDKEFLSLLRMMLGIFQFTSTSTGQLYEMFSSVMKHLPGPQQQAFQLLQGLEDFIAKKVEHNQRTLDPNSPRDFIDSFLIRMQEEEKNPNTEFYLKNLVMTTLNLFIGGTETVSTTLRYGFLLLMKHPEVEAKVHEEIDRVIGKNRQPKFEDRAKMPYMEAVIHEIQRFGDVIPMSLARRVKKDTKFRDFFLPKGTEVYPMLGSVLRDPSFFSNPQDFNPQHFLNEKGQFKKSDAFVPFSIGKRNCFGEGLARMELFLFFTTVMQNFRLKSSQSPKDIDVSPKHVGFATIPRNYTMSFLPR

Cytochrome P450 2B1 [5] = biological target: T5, Cytochrome P450 2B1 (Rattus norvegicus, UniProt P00176); assay: Mechanism based inhibition of rat cytochrome P450 2B1
T5 sequence (P00176 whole entry): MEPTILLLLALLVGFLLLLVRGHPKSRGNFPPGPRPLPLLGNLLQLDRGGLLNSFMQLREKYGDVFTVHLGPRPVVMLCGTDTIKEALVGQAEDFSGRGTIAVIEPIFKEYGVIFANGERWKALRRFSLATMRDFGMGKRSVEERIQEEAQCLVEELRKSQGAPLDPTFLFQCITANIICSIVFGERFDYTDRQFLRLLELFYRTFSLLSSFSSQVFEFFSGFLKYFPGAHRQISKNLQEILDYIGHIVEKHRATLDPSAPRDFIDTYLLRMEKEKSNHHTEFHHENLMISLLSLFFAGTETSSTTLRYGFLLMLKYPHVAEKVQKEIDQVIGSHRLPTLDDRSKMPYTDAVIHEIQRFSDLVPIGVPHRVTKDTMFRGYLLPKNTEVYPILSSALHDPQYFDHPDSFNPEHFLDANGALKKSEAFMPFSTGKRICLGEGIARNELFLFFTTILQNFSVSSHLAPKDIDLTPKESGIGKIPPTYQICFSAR

Cytochrome P450 2B1 [6] = biological target: T5, Cytochrome P450 2B1; assay: Mechanism based inhibition of rat cytochrome P450 CYP2B1 measured by 7-EFC O-deethylation activity; conditions: rat
Cytochrome P450 3A4 [7] = biological target: T2, Cytochrome P450 3A4; assay: as §2
Cytochrome P450 1A1 = biological target: T6, Cytochrome P450 1A1 (Homo sapiens, UniProt P04798); assay: Mechanism based inhibition of human cytochrome P450 1A1 measured by 7-ethoxyresorufin O-deethylation (EROD)
T6 sequence (P04798 whole entry): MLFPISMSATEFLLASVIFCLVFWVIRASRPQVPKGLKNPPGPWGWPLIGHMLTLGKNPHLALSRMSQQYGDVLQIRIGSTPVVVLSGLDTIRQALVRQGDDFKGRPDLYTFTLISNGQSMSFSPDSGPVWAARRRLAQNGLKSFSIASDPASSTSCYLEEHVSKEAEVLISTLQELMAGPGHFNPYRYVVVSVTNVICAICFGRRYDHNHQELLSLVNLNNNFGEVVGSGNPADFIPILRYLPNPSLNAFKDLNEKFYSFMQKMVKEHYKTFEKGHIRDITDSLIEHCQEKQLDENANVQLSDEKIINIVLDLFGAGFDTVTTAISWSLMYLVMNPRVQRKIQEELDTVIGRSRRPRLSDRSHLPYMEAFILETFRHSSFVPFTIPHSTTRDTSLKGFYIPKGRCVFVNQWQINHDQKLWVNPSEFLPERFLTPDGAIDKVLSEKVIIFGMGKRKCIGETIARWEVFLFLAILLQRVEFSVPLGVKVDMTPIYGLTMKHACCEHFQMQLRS

Cytochrome P450 2E1 [8] = biological target: Cytochrome P450 2E1 (Rattus norvegicus, UniProt P05182); assay: Mechanism based inhibition of rat cytochrome P450 CYP2E1
Cytochrome P450 2A6 = biological target: T7, Cytochrome P450 2A6 (Homo sapiens, UniProt P11509); assay: as §3
T7 sequence (P11509 whole entry): T4 sequence (P11509 whole entry)

T1 sequence (P08684 whole entry): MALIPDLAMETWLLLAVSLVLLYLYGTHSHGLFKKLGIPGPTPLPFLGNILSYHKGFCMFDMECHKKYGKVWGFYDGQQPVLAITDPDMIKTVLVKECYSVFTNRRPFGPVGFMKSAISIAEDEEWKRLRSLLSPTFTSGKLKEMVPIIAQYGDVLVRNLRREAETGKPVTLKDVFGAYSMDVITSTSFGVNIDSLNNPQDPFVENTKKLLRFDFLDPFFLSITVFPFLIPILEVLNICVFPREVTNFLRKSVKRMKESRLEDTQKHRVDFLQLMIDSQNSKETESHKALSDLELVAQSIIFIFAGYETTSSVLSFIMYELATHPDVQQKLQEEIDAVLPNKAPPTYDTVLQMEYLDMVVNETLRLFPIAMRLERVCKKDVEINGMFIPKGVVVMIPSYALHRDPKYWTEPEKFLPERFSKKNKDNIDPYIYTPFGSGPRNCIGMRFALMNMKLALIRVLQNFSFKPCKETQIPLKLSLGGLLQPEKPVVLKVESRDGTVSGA
T2 sequence (P08684 whole entry): as above
Sequence of Cytochrome P450 2E1 (Rattus norvegicus, UniProt P05182) (P05182 whole entry): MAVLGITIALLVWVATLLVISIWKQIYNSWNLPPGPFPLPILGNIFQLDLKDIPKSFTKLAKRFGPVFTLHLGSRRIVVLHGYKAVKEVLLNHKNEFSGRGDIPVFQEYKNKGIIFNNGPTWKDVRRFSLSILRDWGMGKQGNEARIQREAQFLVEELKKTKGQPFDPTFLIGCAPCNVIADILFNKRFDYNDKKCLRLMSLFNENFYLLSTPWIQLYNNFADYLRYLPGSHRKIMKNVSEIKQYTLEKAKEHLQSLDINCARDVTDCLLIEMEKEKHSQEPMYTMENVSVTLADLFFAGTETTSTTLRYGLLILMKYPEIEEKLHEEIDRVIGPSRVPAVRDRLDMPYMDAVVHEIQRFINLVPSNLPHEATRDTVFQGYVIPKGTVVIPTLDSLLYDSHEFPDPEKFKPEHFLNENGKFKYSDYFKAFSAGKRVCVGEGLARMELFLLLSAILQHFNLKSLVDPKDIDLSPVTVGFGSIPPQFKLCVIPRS
Sequence of Cytochrome P450 2E1 (Homo sapiens, UniProt P05181) (P05181 whole entry): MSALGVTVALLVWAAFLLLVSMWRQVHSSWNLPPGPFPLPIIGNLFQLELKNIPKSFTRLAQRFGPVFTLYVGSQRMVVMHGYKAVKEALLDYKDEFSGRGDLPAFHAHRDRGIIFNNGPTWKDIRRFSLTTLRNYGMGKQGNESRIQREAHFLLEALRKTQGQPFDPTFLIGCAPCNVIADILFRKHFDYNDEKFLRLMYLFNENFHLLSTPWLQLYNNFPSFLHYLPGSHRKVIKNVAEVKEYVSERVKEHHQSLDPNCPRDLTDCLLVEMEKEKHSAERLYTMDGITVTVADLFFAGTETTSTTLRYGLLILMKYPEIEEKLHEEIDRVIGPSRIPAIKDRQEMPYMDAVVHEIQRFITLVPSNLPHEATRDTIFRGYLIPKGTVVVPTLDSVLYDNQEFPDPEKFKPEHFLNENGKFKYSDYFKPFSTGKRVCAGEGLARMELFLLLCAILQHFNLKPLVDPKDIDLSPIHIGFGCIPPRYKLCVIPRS

## COc1cc(C[C@H]2C(=O)OC[C@@H]2Cc2ccc3c(c2)OCO3)cc(OC)c1OC
CYP3A4 [1]
  kinact: 0.00533 s⁻¹
Cytochrome P450 3A4 [2]
  Ki: 177 nM

## COc1cc(C[C@H]2C(O)OC[C@@H]2Cc2ccc3c(c2)OCO3)cc(OC)c1OC (some centres undefined)
CYP3A4 [1]
  kinact: 0.00422 s⁻¹
Cytochrome P450 3A4 [2]
  Ki: 82 nM

## COc1cc(CNC(=O)CCCC/C=C/C(C)C)ccc1O [CAPSAICIN]
Cytochrome P450 2E1 [3]
  mechanism based inhibition: Cytochrome P450 mechanistic inhibitor: PMID 7746093

## NNc1nnc(NN)c2ccccc12 [DIHYDRALAZINE]
CYP3A4 [4]
  kinact: 0.000785 s⁻¹

## OC[C@H](Cc1ccc2c(c1)OCO2)[C@H](CO)Cc1ccc2c(c1)OCO2 [DIHYDROCUBEBIN]
CYP3A4 [1]
  kinact: 0.00375 s⁻¹
Cytochrome P450 3A4 [2]
  Ki: 142 nM

## C#C [ETHYNE]
Cytochrome P450 1A2
  mechanism based inhibition: Cytochrome P450 mechanistic inhibitor: PMID 9760279

## O=C1OC[C@H](Cc2ccc3c(c2)OCO3)[C@H]1Cc1ccc2c(c1)OCO2 [HINOKININ]
CYP3A4 [1]
  kinact: 0.00525 s⁻¹
Cytochrome P450 3A4 [2]
  Ki: 373 nM

## CN1CCC[C@H]1c1cccnc1 [NICOTINE]
CYP2A6
  kinact: 1.18 s⁻¹

## Cn1cccc1-c1cccnc1 [NICOTYRINE]
CYP2A6
  kinact: 0.104 s⁻¹

## O=NOO [PEROXYNITRITE]
Cytochrome P450 2B1 [5]
  mechanism based inhibition: Cytochrome P450 mechanistic inhibitor: PMID 12588183
Cytochrome P450 2B1 [6]
  mechanism based inhibition: Cytochrome P450 mechanistic inhibitor: PMID 9760281

## Oc1ccc(/C=C/c2cc(O)cc(O)c2)cc1 [RESVERATROL]
Cytochrome P450 3A4 [7]
  mechanism based inhibition: Cytochrome P450 mechanistic inhibitor: PMID 11701226
Cytochrome P450 1A1
  mechanism based inhibition: Cytochrome P450 mechanistic inhibitor: PMID 11259321

## O=c1c2ccccc2nc2n1CCc1c-2[nH]c2ccccc12 [RUTAECARPINE]
CYP3A4 [1]
  kinact: 0.00645 s⁻¹
Cytochrome P450 3A4 [2]
  Ki: 108000 nM

## S=P(N1CC1)(N1CC1)N1CC1 [THIOTEPA]
Cytochrome P450 2B1 [5]
  Ki: 31 µM

## C=C[C@]1(C)C[C@@H](OC(=O)CSCCN(CC)CC)[C@]2(C)[C@H](C)CC[C@]3(CCC(=O)[C@H]32)[C@@H](C)[C@@H]1O [TIAMULIN]
Cytochrome P450 3A4 [7]
  mechanism based inhibition: Cytochrome P450 mechanistic inhibitor: PMID 7575636

## ClC=C(Cl)Cl [TRICHLOROETHYLENE]
Cytochrome P450 2E1 [8]
  mechanism based inhibition: Cytochrome P450 mechanistic inhibitor: PMID 9851676

## CCCC(CCC)C(=O)O [VALPROIC ACID]
CYP2A6; human
  kinact: 0.0008 s⁻¹
Cytochrome P450 2A6
  Ki: 9.15 mM
